In patent publication US7659296B2, “Vitamin D receptor modulators” (Eli Lilly and Company, priority 2004, dated 2010):

What was measured:
Type in all cases: cell-based
[1] = molecular target: T1, RXR-VDR heterodimer (Homo sapiens, UniProt P11473); test: RXR-VDR heterodimerization (SaOS-2 cells) test; conditions: Gal-4-RXR-DEF and VP16-VDR-LBD, luciferase reporter
T1 construct: add the Gal-4-RXR-DEF and VP16-VDR-LBD; expressed in transfected cells; host or cells: SaOS-2 cells
T1 sequence (P11473 127-423 limits assumed): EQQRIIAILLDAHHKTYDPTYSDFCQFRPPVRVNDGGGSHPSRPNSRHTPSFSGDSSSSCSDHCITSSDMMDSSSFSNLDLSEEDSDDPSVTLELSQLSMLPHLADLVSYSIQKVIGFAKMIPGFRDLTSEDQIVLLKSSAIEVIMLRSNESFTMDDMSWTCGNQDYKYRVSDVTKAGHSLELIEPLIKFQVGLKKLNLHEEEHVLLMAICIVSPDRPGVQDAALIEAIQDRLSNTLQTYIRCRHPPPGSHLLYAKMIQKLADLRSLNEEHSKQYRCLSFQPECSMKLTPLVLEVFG
T1 sequence (P19793 201-462 partner limits assumed): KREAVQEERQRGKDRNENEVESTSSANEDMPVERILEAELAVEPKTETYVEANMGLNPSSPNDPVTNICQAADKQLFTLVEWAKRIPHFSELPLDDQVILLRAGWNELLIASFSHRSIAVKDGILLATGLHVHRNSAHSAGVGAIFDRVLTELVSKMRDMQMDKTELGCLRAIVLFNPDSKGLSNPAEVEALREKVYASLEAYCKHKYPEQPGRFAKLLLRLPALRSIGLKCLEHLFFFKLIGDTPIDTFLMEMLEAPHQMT
Protocol: 1. The RXR-VDR heterodimerAssay:
This assay provides the VDR activity of a test compound. It is desirable to have low EC50 values for a compound in this assay. […] Desired assay results are EC50 values less than or equal to 600 nM. Preferred assay results are less than 250 nM, and most preferably less than 150 nM.
(1) Materials and Method for RXR-VDR Heterodimerization Assay Transfection Method: Reagents: FuGENE 6 Transfection Reagent (Roche Cat # 1 814 443); Growth Media: D-MEM High Glucose (Gibco BRL Cat # 11054-020), 10% heat inactivated FBS (Gibco BRL Cat # 10092-147), 1% antibiotic-antimycotic (Ab-Am); (Gibco BRL Cat # 15240-062). Cells: Grow SaOS-2 cells in T-150 cm^2 culture flasks in growth media keeping the density at 5-6×10^5 cells/ml. Passage cells 1:3 twice a week. Add Trypsin EDTA (Gibco BRL Cat # 25300-020) and incubate. Resuspend cells in plating media and transfer into growth media. Wash Media: HBSS Low Glucose Without Phenol Red (Gibco BRL Cat # 14175-095), 1% Ab-Am. Plating Media: D-MEM Low Glucose Without Phenol Red (Gibco BRL Cat # 11054-020), 1% Ab-Am; D-MEM; 10% Stripped FBS (Hyclone Cat# SH30068.03 Lot # AHM9371). Transfection/Treatment Media: D-MEM Low Glucose Without Phenol Red only; T-150 cm^2 culture flask: Use Corning Coastar T-150 cm^2 culture flask (Cat #430825) to grow the cells. Luciferase Assay Reagent: Use Steady-Glo Luciferase Reagent from Promega (Cat # E2550) Consists of: E2533 Assay Substrate, lypholized product and E2543 Assay Buffer. Thaw at room temperature and store. Cell Harvesting/Count: Aspirate media from culture flask, rinse cells with HBSS and aspirate. Add trypsin and incubate. When cells appear detached, resuspend cells in growth media. Transfer into a new flask with fresh growth media for passaging the cells. Plate 96 well plates and two extra plates. Mix the cell suspension using pipette. To count the cells using a Hematocytometer. Plate seeding: Use plating media 10% Stripped FBS in D-MEM Low Glucose, without Phenol Red, 1% Ab-Am. Plate 14 plates @ 165 μl/well. In sterile flask add cell suspension to plating media and mix. Add cells/well. Place the cells in the incubator. Cells should be about 75% confluent prior to transfection. DAY 2: Transfection: Step 1, DNA and Media: Add plain DMEM media to tubes for mixing the DNA; add the Reporter gene pFR-LUC; and add the Gal-4-RXR-DEF and VP16-VDR-LBD. Step 2, FuGENE and Media: Prepare plain DMEM media in a tubes for mixing FuGENE, add FuGENE 6 Transfection Reagent, and incubate. Step 3, FuGENE, DNA and Media Complex: Add FuGENE Media complex from step 2 to DNA Media complex from step 1 and incubate. Step 4, FuGENE, DNA and Media Complex to 96 well plate: Add FuGENE-DNA-Media complex from step 3 to each plate. Incubate. Day 3: Dosing: Treatment preparation. Allow for transfection time. Make a stock solution of the compounds in DMSO and vortex until all the compounds have been dissolved. Further dilute in D-MEM (Low Glucose—without Phenol Red) Add compounds in quadruplicate to give desired final volume then incubate. Day 4: Luciferase Assay: Read the plates after drug treatment. Remove part of media from all the wells and leave remainder. Add Steady-Glo Luciferase Reagent mixture/wells and incubate. Count each well using a Luminescence counter, Top Count NXT by Packard preferably set a delay between plates to reduce the background.

[2] = tested on: KERtr cells (Human skin keratinocyte); test: Keratinocyte Proliferation Assay; conditions: BrdU incorporation, 72 h, read-out: Kera. Prolif. IC50
Protocol: The Keratinocyte Proliferation Assay
This Assay is indicative for the treatment of psoriasis. An acceptable test result is IC50 value of less than or equal to 300 nM. Preferred assay results are IC50 values of less than 100 nM.
KERtr cells (Human skin keratinocyte) are transformed with a retrovirus vector, obtained from ATCC, then are plated in 96-well flat-bottomed plates (3000 cells/well) in 100 μl keratinocyte serum free medium supplemented with bovine pituitary extract in the absence of EGF (Life Technologies, Rockville, Md.) and are incubated at 37° C. for two days. The cells are treated with various concentrations of VDR ligands (ten-fold serial dilution from 10,000 nM to 0.1 nM in triplicate), dissolved in 100 μl keratinocyte serum free medium supplemented with bovine pituitary extract in the absence of EGF and are incubated at 37° C. for 72 h. BrdU (5-bromo-2′-deoxyuridine) incorporation is analyzed as a measure of DNA replication (Cell proliferation ELISA kit, Roche Diagnostics, Indianapolis, Ind.) and absorbance is measured at 405 nm. Potency values (IC50) values were determined as the concentration (nM) of compound that elicited a half-maximal response.

[3] = tested on: rat osteocalcin promoter; test: OCN (osteocalcin) Promoter Assay; conditions: RG-15 (ROS17/2.8) cells, luciferase reporter, 48 h treatment
Protocol: The OCN (osteocalcin) Promoter Assay
The OCN Promoter Assay is an indicator and marker for osteoporosis. Desired assay results are EC50 less than or equal to 325 nM. Preferred assay results are less than 50 nM.
The activation of osteocalcin by VDR ligands is evaluated in a rat osteoblast-like cell line RG-15 (ROS17/2.8) stably expressing rat osteocalcin promoter fused with luciferase reporter gene. The stable cell lines are established as reported before (Activation of Osteocalcin Transcription involves interaction of protein kinase A- and Protein kinase C-dependent pathways. Boguslawski, G., Hale, L. V., Yu, X.-P., Miles, R. R., Onyia, J. E., Santerre R. F., Chandrasekhar, S. J. Biol. Chem. 275, 999-1006, 2000). Confluent RG-15 cells maintained in DMEM/F-12 medium (3:1) containing 5% FBS, 300 μg/ml G418 and at 37° C. under 5% CO2/95% air atmosphere are trypsinized (0.25% trypsin) and plated into white opaque 96-well cell culture plates (25000 cells/well). After 24 h, cells (in DMEM/F-12 medium+2% FBS) are treated with various concentrations of compounds, dissolved in DMSO. The final DMSO concentration remains at 0.01% (v/v). After 48 h treatment, the medium is removed, cells are lysed with 50 μl of lysis buffer (From Luciferase reporter assay system, Roche Diagnostics, Indianapolis, Ind.) and then assayed for luciferase activity using the Luciferase Reporter Gene Assay kit from Boehringer Mannheim as per manufacturer's specifications.

SMILES	EC50 [1] [µM]	IC50 [2] [µM]	EC50 [3] [µM]
CCC(CC)(c1ccc(OCC(=O)C(C)(C)C)c(C)c1)c1nc2cc(C(N)=O)ccc2o1 [Ex 7, 2-{1-[4-(3,3-Dimethyl-2-oxo-butoxy)-3-methyl-phenyl]-1-ethyl-propyl}-benzooxazole-5-carboxylic acid amide]	0.177	> 1	–
CCC(CC)(c1ccc(OCC(=O)C(C)(C)C)c(C)c1)c1nc2cc(C(=O)N(C)C)ccc2o1 [Ex 8, 2-{1-[4-(3,3-Dimethyl-2-oxo-butoxy)-3-methyl-phenyl]-1-ethyl-propyl}-benzooxazole-5-carboxylic acid dimethylamide]	0.117	> 1	–
CCC(CC)(c1ccc(OCC(=O)C(C)(C)C)c(C)c1)c1nc2cc(C(=O)NCC(=O)O)ccc2o1 [Ex 9, [(2-{1-[4-(3,3-Dimethyl-2-oxo-butoxy)-3-methyl-phenyl]-1-ethyl-propyl}-benzooxazole-5-carbonyl)-amino]-acetic acid]	0.15	> 1	–
CCC(CC)(c1ccc(OCC(=O)C(C)(C)C)c(C)c1)c1nc2ccc(C(=O)O)cc2o1 [Ex. 1, 2-{1-[4-(3,3-dimethyl-2-oxo-butoxy)-3-methyl-phenyl]-1-ethyl-propyl}-benzooxazole-6-carboxylic acid]	1.12	–	0.376
CCC(CC)(c1ccc(OCC(=O)C(C)(C)C)c(C)c1)c1nc2ccc(C(N)=O)cc2o1 [Ex. 2, 2-{1-[4-(3,3-Dimethyl-2-oxo-butoxy)-3-methyl-phenyl]-1-ethyl-propyl}-benzooxazole-6-carboxylic acid amide]	0.073	> 1	0.289
CCC(CC)(c1ccc(OCC(=O)C(C)(C)C)c(C)c1)c1nc2ccc(C(=O)N(C)C)cc2o1 [Ex. 3, 2-{1-[4-(3,3-Dimethyl-2-oxo-butoxy)-3-methyl-phenyl]-1-ethyl-propyl}-benzooxazole-6-carboxylic acid dimethylamide]	0.701	–	1.64
CCC(CC)(c1ccc(OCC(=O)C(C)(C)C)c(C)c1)c1nc2ccc(C(=O)NCC(=O)O)cc2o1 [Ex. 4, [(2-{1-[4-(3,3-dimethyl-2-oxo-butoxy)-3-methyl-phenyl]-1-ethyl-propyl}-benzooxazole-6-carbonyl)-amino]-acetic acid]	0.7	–	1.17
CCC(CC)(c1ccc(OCC(=O)C(C)(C)C)c(C)c1)c1nc2cc(C(=O)O)ccc2o1 [Ex. 5, 2-{1-[4-(3,3-Dimethyl-2-oxo-butoxy)-3-methyl-phenyl]-1-ethyl-propyl}-benzooxazole-5-carboxylic acid]	0.037	> 1	0.008
CCC(CC)(c1ccc(OCC(O)C(C)(C)C)c(C)c1)c1nc2cc(C(=O)O)ccc2o1 (centres unmarked) [Ex. 6, 2-{1-Ethyl-1-[4-(2-hydroxy-3,3-dimethyl-butoxy)-3-methyl-phenyl]-propyl}-benzooxazole-5-carboxylic acid]	0.005	0.036	–
